Paper PMC10132233 (Journal of Enzyme Inhibition and Medicinal Chemistry, 2023)

How the values were obtained:
[1] = tested on: PC3 prostate carcinoma cell line; experiment: MTT cytotoxicity assay, PC3; assay type: cell-based; details: Homo sapiens, 24 h
Text: (§1) Accordingly, we aimed to investigate the cytotoxic potential of this new series against prostate carcinoma cell lines. […] The potent nanomolar cell-based activity of this series of compounds over the tested prostate carcinoma cell line could be attributed to other possible targets in addition to EGFR and HER2 receptors. The presence of the 2-nitroimidazole moiety in the chemical structure of compounds 9a–h could develop possible covalent bonds between the nitroimidazole moiety and some cellular proteins.
(§2) Prostate cancer cell lines (PC3 and 22RV1) of American Type Culture Collection (ATCC) were obtained from Korean Cell Center (KCL). PC3 and 22RV1 cell lines were cultured in Roswell Park Memorial Institute Medium (RPMI) 1640 and Dulbecco’s modified Eagle’s medium (DMEM) (GenDepot, Barker, TX) supplemented with 1% penicillin–streptomycin and 10% foetal bovine serum (FBS). The cells were maintained at 37 °C in a 5% CO2 with a 95% humid atmosphere.
(§3) To further analyse the intracellular cytotoxicity effect of the as-synthesised compounds, MTT assay was performed. Moreover, the experiments were divided into subcategories. In each group, cancer cells were first seeded in 96-well plates (4 × 10^4 cells per well) and then incubated for 24 h at 37 °C in a 5% CO2-containing atmosphere. Subsequently, the medium from the culture plate was removed, and 100 µL of RPMI media containing different concentrations of compounds (0.01, 0.005, 0.0025, 0.00125, and 0.000625 µM) were then added into the cell lines in each well and incubated for 24 h in a 5% CO2 humidified incubator at 37 °C. Afterwards, MTT solution (150 μL, 1 mg/mL) was added to each well, replacing the media-containing compounds. After 4 h of incubation, the MTT reagent was removed, and 200 μL of DMSO was then added to dissolve the formazan crystals, and colour intensity was measured at a wavelength of 540 nm using a BioTek Synergy H1 instrument (BioTek, Winooski, VT). IC50 was calculated according to the equation of Boltzmann sigmoidal concentration–response curve using Graph Pad Prism 5 (La Jolla, CA).

[2] = tested on: 22RV1 prostate carcinoma cell line; experiment: MTT cytotoxicity assay, 22RV1; assay type: cell-based; details: Homo sapiens, 24 h
Text: as §1, §2, §3

[3] = target: EGFR (Homo sapiens, UniProt P00533); experiment: HotSpot kinase assay over EGFR (Reaction Biology); details: read-out: % kinase inhibition EGFR
Sequence of EGFR (P00533 25-1210): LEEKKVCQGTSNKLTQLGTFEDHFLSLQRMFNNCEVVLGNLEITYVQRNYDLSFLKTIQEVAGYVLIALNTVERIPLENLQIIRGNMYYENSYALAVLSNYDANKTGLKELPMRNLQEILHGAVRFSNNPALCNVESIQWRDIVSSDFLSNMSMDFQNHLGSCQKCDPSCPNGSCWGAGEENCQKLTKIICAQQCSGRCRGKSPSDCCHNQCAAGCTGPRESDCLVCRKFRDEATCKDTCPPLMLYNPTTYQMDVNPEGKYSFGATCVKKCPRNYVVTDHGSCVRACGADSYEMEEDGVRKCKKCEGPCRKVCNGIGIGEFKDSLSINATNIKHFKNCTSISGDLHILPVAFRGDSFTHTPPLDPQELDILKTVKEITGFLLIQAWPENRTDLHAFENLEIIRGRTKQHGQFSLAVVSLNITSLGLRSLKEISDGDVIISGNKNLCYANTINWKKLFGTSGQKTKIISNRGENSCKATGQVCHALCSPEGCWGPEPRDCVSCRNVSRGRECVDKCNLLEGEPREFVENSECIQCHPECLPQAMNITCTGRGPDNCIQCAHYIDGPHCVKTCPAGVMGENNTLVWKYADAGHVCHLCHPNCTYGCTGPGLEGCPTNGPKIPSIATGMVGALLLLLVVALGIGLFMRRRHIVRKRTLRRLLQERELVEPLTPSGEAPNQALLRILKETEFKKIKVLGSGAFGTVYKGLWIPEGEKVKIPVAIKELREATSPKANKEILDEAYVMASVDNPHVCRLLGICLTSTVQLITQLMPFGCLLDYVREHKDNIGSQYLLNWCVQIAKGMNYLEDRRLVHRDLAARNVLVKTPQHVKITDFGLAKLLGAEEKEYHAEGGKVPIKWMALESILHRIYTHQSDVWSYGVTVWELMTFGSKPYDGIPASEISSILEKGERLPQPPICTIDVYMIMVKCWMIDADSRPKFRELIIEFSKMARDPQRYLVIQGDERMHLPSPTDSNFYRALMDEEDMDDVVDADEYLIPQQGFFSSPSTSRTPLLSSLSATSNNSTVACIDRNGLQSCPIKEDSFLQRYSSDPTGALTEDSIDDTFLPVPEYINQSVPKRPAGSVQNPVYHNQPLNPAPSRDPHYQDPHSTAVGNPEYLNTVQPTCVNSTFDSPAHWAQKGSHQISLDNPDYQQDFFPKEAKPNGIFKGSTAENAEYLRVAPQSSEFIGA

[4] = target: HER2 (Homo sapiens, UniProt P04626); experiment: HotSpot kinase assay over HER2 (Reaction Biology); details: read-out: % kinase inhibition HER2
Sequence of HER2 (P04626 23-1255): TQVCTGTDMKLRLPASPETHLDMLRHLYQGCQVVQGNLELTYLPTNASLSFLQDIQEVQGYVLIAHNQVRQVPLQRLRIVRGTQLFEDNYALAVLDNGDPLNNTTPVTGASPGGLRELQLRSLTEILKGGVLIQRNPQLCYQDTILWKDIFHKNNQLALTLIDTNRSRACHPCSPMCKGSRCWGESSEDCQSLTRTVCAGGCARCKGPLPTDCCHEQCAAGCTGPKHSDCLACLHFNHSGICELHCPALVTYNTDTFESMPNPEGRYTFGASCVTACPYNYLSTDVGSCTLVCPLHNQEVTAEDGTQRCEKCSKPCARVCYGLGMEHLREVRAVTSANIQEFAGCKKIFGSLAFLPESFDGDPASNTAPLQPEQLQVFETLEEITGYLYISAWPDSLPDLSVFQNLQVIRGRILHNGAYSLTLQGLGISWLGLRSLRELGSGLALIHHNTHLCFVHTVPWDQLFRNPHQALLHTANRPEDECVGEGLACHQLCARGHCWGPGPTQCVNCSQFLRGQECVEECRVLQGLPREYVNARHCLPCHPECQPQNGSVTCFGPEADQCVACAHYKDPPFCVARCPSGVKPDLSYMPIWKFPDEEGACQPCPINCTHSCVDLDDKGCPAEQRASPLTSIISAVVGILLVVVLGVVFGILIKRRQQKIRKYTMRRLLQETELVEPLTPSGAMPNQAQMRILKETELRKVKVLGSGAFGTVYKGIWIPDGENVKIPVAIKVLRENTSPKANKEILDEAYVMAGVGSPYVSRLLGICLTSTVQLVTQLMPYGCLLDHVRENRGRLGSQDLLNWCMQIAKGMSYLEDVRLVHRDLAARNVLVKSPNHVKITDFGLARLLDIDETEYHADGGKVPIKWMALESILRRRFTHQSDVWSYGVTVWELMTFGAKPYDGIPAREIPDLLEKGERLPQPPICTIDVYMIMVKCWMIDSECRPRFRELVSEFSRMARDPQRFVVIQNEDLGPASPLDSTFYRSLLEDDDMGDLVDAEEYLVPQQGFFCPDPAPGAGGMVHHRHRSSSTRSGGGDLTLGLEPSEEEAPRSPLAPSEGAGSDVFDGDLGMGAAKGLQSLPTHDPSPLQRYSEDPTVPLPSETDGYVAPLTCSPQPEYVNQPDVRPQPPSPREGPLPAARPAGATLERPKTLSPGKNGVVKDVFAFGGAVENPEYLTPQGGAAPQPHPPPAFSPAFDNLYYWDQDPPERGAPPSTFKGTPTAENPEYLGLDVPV

Row | SMILES | melting point | inhibition at 10 µM [3] | inhibition at 10 µM [4] | IC50 [1] | IC50 [2]
1 | COc1cc2ncnc(Nc3ccc(Oc4ccc(Cl)c(Cl)c4)c(Cl)c3)c2cc1OCCCn1ccnc1[N+](=O)[O-] [Compound 9a, N-(3-Chloro-4-(3,4-dichlorophenoxy)phenyl)-7-methoxy-6-(3-(2-nitro-1H-imidazol-1-yl)propoxy)quinazolin-4-amine] | 237 to 238 °C | 89% | 69.8% | 6.1 nM | 2.3 nM
2 | COc1cc2ncnc(Nc3ccc(Oc4ccc(Cl)c(Cl)c4)c(Cl)c3)c2cc1OCCCCn1ccnc1[N+](=O)[O-] [Compound 9b, N-(3-Chloro-4-(3,4-dichlorophenoxy)phenyl)-7-methoxy-6-(4-(2-nitro-1H-imidazol-1-yl)butoxy)quinazolin-4-amine] | 101 to 102 °C | 94.2% | 80.3% | 3.1 nM | 2 nM
3 | COc1cc2ncnc(Nc3ccc(Oc4ccc(Cl)c(Cl)c4)c(Cl)c3)c2cc1OCCCCCCn1ccnc1[N+](=O)[O-] [Compound 9d, N-(3-Chloro-4-(3,4-dichlorophenoxy)phenyl)-7-methoxy-6-((6-(2-nitro-1H-imidazol-1-yl)hexyl)oxy)quinazolin-4-amine] | 90 to 91 °C | 88.9% | 72.1% | 2.1 nM | 2.8 nM
4 | COc1cc2ncnc(Nc3ccc(Oc4ccc(Cl)c(Cl)c4)c(Cl)c3)c2cc1OCCCCCn1ccnc1[N+](=O)[O-] [Compound 9c, N-(3-Chloro-4-(3,4-dichlorophenoxy)phenyl)-7-methoxy-6-((5-(2-nitro-1H-imidazol-1-yl)pentyl)oxy)quinazolin-4-amine] | 94 to 95 °C | 90% | 78.6% | 3.3 nM | 1.9 nM

More lines, main results first:

Row | melting point | inhibition at 10 µM [3] | inhibition at 10 µM [4] | SMILES | IC50 [1] | IC50 [2]
5 | 90 to 91 °C | 99.2% | 96.2% | COc1cc2ncnc(Nc3ccc(Oc4cccc(C(F)(F)F)c4)c(Cl)c3)c2cc1OCCCCCn1ccnc1[N+](=O)[O-] [Compound 9g, N-(3-Chloro-4-(3-(trifluoromethyl)phenoxy)phenyl)-7-methoxy-6-((5-(2-nitro-1H-imidazol-1-yl)pentyl)oxy)quinazolin-4-amine] | 4.6 nM | 1.3 nM
6 | 232 to 233 °C | 98.9% | 81.7% | COc1cc2ncnc(Nc3ccc(Oc4cccc(C(F)(F)F)c4)c(Cl)c3)c2cc1OCCCn1ccnc1[N+](=O)[O-] [Compound 9e, N-(3-Chloro-4-(3-(trifluoromethyl)phenoxy)phenyl)-7-methoxy-6-(3-(2-nitro-1H-imidazol-1-yl)propoxy)quinazolin-4-amine] | 7.3 nM | 0.8 nM
7 | 84 to 85 °C | 96.8% | 97% | COc1cc2ncnc(Nc3ccc(Oc4cccc(C(F)(F)F)c4)c(Cl)c3)c2cc1OCCCCCCn1ccnc1[N+](=O)[O-] [Compound 9h, N-(3-Chloro-4-(3-(trifluoromethyl)phenoxy)phenyl)-7-methoxy-6-((6-(2-nitro-1H-imidazol-1-yl)hexyl)oxy)quinazolin-4-amine] | 5.6 nM | 1.1 nM
